Experimental data taken from PubChem BioAssay AID256 (DTP/NCI, 2004).
Where “and” joins values, the source holds several entries; their conditions need not be identical. Equal entries are not always repeated. Toxic doses and inconclusive results are not listed. How the source made its calls: active means survival T/C of 150% or more; inactive means T/C below 125% in these data.

Test system: CD2F1 mice, L1210 leukemia ip, survival T/C
Test: NCI In Vivo Anticancer Drug Screen. Data for tumor model L1210 Leukemia (intraperitoneal) in CD2F1 (CDF1) mice
Details: higher = longer survival
Summary of the method: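 Antitumor effect is scored in animals hosting a serially transplanted tumor. Values compare compound-dosed animals against vehicle-only controls as a simple quotient.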

[1] = endpoint: mean survival time, dose: 100.0 mg/kg/injection, schedule: Q01DX001 (ip), vehicle: saline with Tween-80
[2] = endpoint: mean survival time, dose: 100.0 mg/kg/injection, schedule: Q01DX009 (ip), vehicle: saline with Tween-80
[3] = endpoint: mean survival time, dose: 200.0 mg/kg/injection, schedule: Q01DX001 (ip), vehicle: saline with Tween-80
[4] = endpoint: mean survival time, dose: 200.0 mg/kg/injection, schedule: Q01DX009 (ip), vehicle: saline with Tween-80
[5] = endpoint: mean survival time, dose: 400.0 mg/kg/injection, schedule: Q01DX001 (ip), vehicle: saline with Tween-80
[6] = endpoint: mean survival time, dose: 400.0 mg/kg/injection, schedule: Q01DX009 (ip), vehicle: saline with Tween-80
[7] = endpoint: mean survival time, dose: 100.0 mg/kg/injection, schedule: Q04DX003 (ip), vehicle: saline with Tween-80
[8] = endpoint: mean survival time, dose: 200.0 mg/kg/injection, schedule: Q04DX003 (ip), vehicle: saline with Tween-80
[9] = endpoint: mean survival time, dose: 400.0 mg/kg/injection, schedule: Q04DX003 (ip), vehicle: saline with Tween-80
[10] = endpoint: mean survival time, dose: 100.0 mg/kg/injection, schedule: Q04DX003 (ip), vehicle: saline
[11] = endpoint: mean survival time, dose: 200.0 mg/kg/injection, schedule: Q04DX003 (ip), vehicle: saline
[12] = endpoint: mean survival time, dose: 400.0 mg/kg/injection, schedule: Q04DX003 (ip), vehicle: saline
[13] = endpoint: mean survival time, dose: 50.0 mg/kg/injection, schedule: Q04DX003 (ip), vehicle: saline
[14] = endpoint: mean survival time, dose: 50.0 mg/kg/injection, schedule: Q01DX009 (ip), vehicle: saline with Tween-80
[15] = endpoint: mean survival time, dose: 50.0 mg/kg/injection, schedule: Q04DX002 (ip), vehicle: saline with Tween-80
[16] = endpoint: mean survival time, dose: 100.0 mg/kg/injection, schedule: Q04DX002 (ip), vehicle: saline with Tween-80
[17] = endpoint: mean survival time, dose: 200.0 mg/kg/injection, schedule: Q04DX002 (ip), vehicle: saline with Tween-80
[18] = endpoint: mean survival time, dose: 400.0 mg/kg/injection, schedule: Q04DX002 (ip), vehicle: saline with Tween-80

Measured: T/C

O=S1C2C3CC(C4C=CCC43)C2N1c1ccccc1 (centres undefined)
inactive: [1] 92 % of control | [2] 97 % of control | [3] 95 % of control | [4] 97 % of control | [5] 90 % of control | [6] 94 % of control

O=NN(CCOS(=O)(=O)c1ccc(Br)cc1)C(=O)NC1CCCCC1
inactive: endpoint: mean survival time, dose: 100.0 mg/kg/injection, schedule: Q01DX001 (ip), vehicle: other 102 % of control | endpoint: mean survival time, dose: 200.0 mg/kg/injection, schedule: Q01DX001 (ip), vehicle: other 101 % of control

COc1ccc(C2CCc3cc4c(cc3C2=O)OCO4)cc1OC (centres undefined)
inactive: [7] 98 % of control | [8] 96 % of control | [9] 91 % of control

COC1OC(CO)C(O)C(O)C1O (centres undefined)
inactive: endpoint: mean survival time, dose: 100.0 mg/kg/injection, schedule: Q01DX001 (ip), vehicle: saline 101 % of control and 105 % of control | [10] 97 % of control | endpoint: mean survival time, dose: 200.0 mg/kg/injection, schedule: Q01DX001 (ip), vehicle: saline 108 % of control and 105 % of control | [11] 102 % of control | endpoint: mean survival time, dose: 400.0 mg/kg/injection, schedule: Q01DX001 (ip), vehicle: saline 101 % of control and 105 % of control | [12] 97 % of control

CCOc1nc(N)nc2c1ncn2C1CC(O)C(CO)O1 (centres undefined)
inactive: endpoint: mean survival time, dose: 12.5 mg/kg/injection, schedule: Q01DX005 (ip), vehicle: water 95 % of control | endpoint: mean survival time, dose: 25.0 mg/kg/injection, schedule: Q01DX005 (ip), vehicle: water 98 % of control | endpoint: mean survival time, dose: 50.0 mg/kg/injection, schedule: Q01DX005 (ip), vehicle: water 102 % of control | endpoint: mean survival time, dose: 100.0 mg/kg/injection, schedule: Q01DX005 (ip), vehicle: water 109 % of control | endpoint: mean survival time, dose: 200.0 mg/kg/injection, schedule: Q01DX005 (ip), vehicle: water 98 % of control

O=C(O)C(O)C(=O)O.[NH2-].[NH2-].[Pt+2]
inactive: endpoint: mean survival time, dose: 25.0 mg/kg/injection, schedule: Q04DX003 (ip), vehicle: saline 108 % of control | [13] 114 % of control | [10] 120 % of control

O=C1C(Br)CCC1C(O)(C(F)(F)F)C(F)(F)F (centres undefined)
inactive: [14] 98 % of control | [2] 102 % of control | [7] 92 % of control | [4] 104 % of control | [8] 91 % of control

COc1cc(C2=N/C(=C\c3cc(Br)ccc3O)C(=O)O2)cc(OC)c1OC
inactive: [15] 88 % of control | [16] 95 % of control and 100 % of control | [17] 96 % of control | [18] 88 % of control and 100 % of control

Oc1ccc(Br)cc1/C=N/c1nc(-c2ccccc2)cs1.Oc1ccc(Br)cc1/C=N/c1nc(-c2ccccc2)cs1.[Cu]
inactive: endpoint: mean survival time, dose: 12.5 mg/kg/injection, schedule: Q01DX001 (ip), vehicle: saline 87 % of control | endpoint: mean survival time, dose: 25.0 mg/kg/injection, schedule: Q01DX001 (ip), vehicle: saline 100 % of control | endpoint: mean survival time, dose: 50.0 mg/kg/injection, schedule: Q01DX001 (ip), vehicle: saline 91 % of control | [3] 93 % of control

O=C(O)c1cccc(C(=O)O)c1
inactive: [7] 95 % of control | [8] 102 % of control | [9] 102 % of control

CC(=O)CC(=O)Nc1cccc(Br)c1
inactive: [2] 98 % of control | [4] 101 % of control | [6] 101 % of control

Nc1nc(N)nc(-c2ccccc2)n1
inactive: [7] 96 % of control | [8] 98 % of control | [9] 105 % of control

CN(C)S(=O)(=O)CC(O)(c1ccccc1)c1ccccc1
inactive: [7] 103 % of control | [8] 103 % of control | [9] 110 % of control

COc1ccc(OC)c(C2C(C#N)C(C=O)NC(C=O)C2C#N)c1 (centres undefined)
inactive: endpoint: mean survival time, dose: 100.0 mg/kg/injection, schedule: Q01DX009 (ip), vehicle: other 100 % of control | endpoint: mean survival time, dose: 200.0 mg/kg/injection, schedule: Q01DX009 (ip), vehicle: other 104 % of control | endpoint: mean survival time, dose: 400.0 mg/kg/injection, schedule: Q01DX009 (ip), vehicle: other 100 % of control

ClC(c1ccccc1)C(Cl)c1ccccc1 (centres undefined)
inactive: endpoint: mean survival time, dose: 3.13 mg/kg/injection, schedule: Q01DX009 (ip), vehicle: saline with Tween-80 102 % of control | endpoint: mean survival time, dose: 6.25 mg/kg/injection, schedule: Q01DX009 (ip), vehicle: saline with Tween-80 102 % of control | endpoint: mean survival time, dose: 12.5 mg/kg/injection, schedule: Q01DX009 (ip), vehicle: saline with Tween-80 91 % of control and 95 % of control

CC1CCOC1=O (centres undefined)
inactive: endpoint: mean survival time, dose: 50.0 mg/kg/injection, schedule: Q04DX002 (ip), vehicle: saline 98 % of control | endpoint: mean survival time, dose: 100.0 mg/kg/injection, schedule: Q04DX002 (ip), vehicle: saline 98 % of control | endpoint: mean survival time, dose: 200.0 mg/kg/injection, schedule: Q04DX002 (ip), vehicle: saline 102 % of control

OCc1c(Cl)c(Cl)c(CO)c(Cl)c1Cl
inactive: [2] 95 % of control | [7] 102 % of control | [4] 90 % of control | [8] 100 % of control | [6] 94 % of control | [9] 96 % of control

O=C(Nc1c(Cl)cccc1Cl)Oc1ccc(Br)cc1
inactive: [14] 103 % of control | [2] 103 % of control

CCOC(=O)/C=C(C)/C=C/C1C(C)=CCCC1(C)C (centres undefined)
inactive: [16] 103 % of control | [17] 92 % of control | [18] 100 % of control

O=C1C(Cl)(Cl)C(=O)C(Cl)(Cl)C(=O)C1(Cl)Cl
inactive: endpoint: mean survival time, dose: 25.0 mg/kg/injection, schedule: Q04DX002 (ip), vehicle: saline with Tween-80 97 % of control | [15] 94 % of control

CCCCCCCCCCCCCCCCC(CCC)C1CCCCC1 (centres undefined)
inactive: [1] 92 % of control | [3] 104 % of control | [5] 101 % of control

S=C1NCc2ccccc2N1
inactive: endpoint: mean survival time, dose: 25.0 mg/kg/injection, schedule: Q01DX001 (ip), vehicle: Klucel (hydroxypropylcellulose) (HPC) 101 % of control | endpoint: mean survival time, dose: 50.0 mg/kg/injection, schedule: Q01DX001 (ip), vehicle: Klucel (hydroxypropylcellulose) (HPC) 101 % of control | endpoint: mean survival time, dose: 100.0 mg/kg/injection, schedule: Q01DX001 (ip), vehicle: Klucel (hydroxypropylcellulose) (HPC) 112 % of control

Cc1ccc(Oc2ccc([N+](=O)[O-])cc2)cc1
inactive: [13] 101 % of control | [10] 100 % of control | [11] 94 % of control

NCC1OC(CO)C(O)C1O (centres undefined)
inactive: [10] 91 % of control | [11] 100 % of control | [12] 104 % of control

Nc1ncnc2c1ncn2C1OC(C[Se](=O)c2ccccc2)C(O)C1O (centres undefined)
inactive: endpoint: median survival time, dose: 12.5 mg/kg/injection, schedule: Q01DX005 (ip), vehicle: Klucel (hydroxypropylcellulose) (HPC) 102 % of control | endpoint: median survival time, dose: 25.0 mg/kg/injection, schedule: Q01DX005 (ip), vehicle: Klucel (hydroxypropylcellulose) (HPC) 106 % of control | endpoint: median survival time, dose: 50.0 mg/kg/injection, schedule: Q01DX005 (ip), vehicle: Klucel (hydroxypropylcellulose) (HPC) 103 % of control | endpoint: median survival time, dose: 100.0 mg/kg/injection, schedule: Q01DX005 (ip), vehicle: Klucel (hydroxypropylcellulose) (HPC) 103 % of control | endpoint: median survival time, dose: 200.0 mg/kg/injection, schedule: Q01DX005 (ip), vehicle: Klucel (hydroxypropylcellulose) (HPC) 104 % of control
